From patent publication US10695346B2, “4,6-pyrimidinylene derivatives and uses thereof” (Dana-Farber Cancer Institute, Inc., priority 2015, dated 2020)

Columns and labels:
[1] = tested on: TP53 wild type MCF7 cells; experiment: Cell proliferation assay (Cell TITER-GLO); details: even at 5 μM; FIG. 3D
Experimental: To determine cell proliferation, cells were plated at 2×10^3 cells per well of 96-well plate. Cells were incubated and assayed at indicated times using Cell TITER-GLO Luminescent Cell Viability assay (Promega). Cells were allowed to equilibrate to room temperature for 15 minutes, then an equal volume of the Cell TITER-GLO reagent was added to wells and incubated for 15 minutes on an orbital shaker. Luminescence was recorded according to the manufacturer's protocol.

[2] = target: T1, PIP4K2A (Homo sapiens, UniProt P48426); experiment: ADP-GLO assay on PIP4K2A; type: biochemical; details: 0.01 mM ATP, 0.05 mM diC8 PI(5)P
T1 sequence (P48426 1-406): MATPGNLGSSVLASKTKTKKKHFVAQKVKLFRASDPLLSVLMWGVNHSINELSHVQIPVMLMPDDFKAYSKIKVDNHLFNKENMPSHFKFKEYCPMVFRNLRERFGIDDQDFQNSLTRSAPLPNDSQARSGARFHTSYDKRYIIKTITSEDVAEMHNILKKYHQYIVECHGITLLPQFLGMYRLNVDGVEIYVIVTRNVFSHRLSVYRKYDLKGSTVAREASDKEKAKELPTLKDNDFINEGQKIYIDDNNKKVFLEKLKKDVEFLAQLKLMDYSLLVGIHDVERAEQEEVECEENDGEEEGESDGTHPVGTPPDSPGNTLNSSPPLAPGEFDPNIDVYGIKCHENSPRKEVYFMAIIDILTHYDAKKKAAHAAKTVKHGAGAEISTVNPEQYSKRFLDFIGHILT
Experimental: After a further incubation of 40 minutes, 40 μl of Kinase Detection Buffer was added. After a further incubation of 40 min, the […] was read on […] ENVISION for 1 sec/well.

| IC50 [2] | Compound | inhibition of TP53 wild type MCF7 cells [1] |
| --- | --- | --- |
| – | CN(C)C/C=C/C(=O)Nc1ccc(C(=O)Nc2cccc(Nc3cc(-c4cnc5[nH]ccc5c4)ncn3)c2)cc1 [Compound 8, (E)-N-(3-((6-(1H-pyrrolo[2,3-b]pyridin-5-yl)pyrimidin-4-yl)amino)phenyl)-4-(4-(dimethylamino)but-2-enamido)benzamide] | didn't inhibit |
| 250 nM | CN(C)C/C=C/C(=O)NC1CCCC(C(=O)Nc2cccc(Nc3cc(-c4cnc5[nH]ccc5c4)ncn3)c2)C1 (centres unmarked) [THZ-CE-A-4-9, (E)-N-(3-((6-(1H-pyrrolo[2,3-b]pyridin-5-yl)pyrimidin-4-yl)amino)phenyl)-3-(4-(dimethylamino)but-2-enamido)cyclohexane-1-carboxamide] | – |
